Measurements taken from publication PMC7990499, “eIF2B conformation and assembly state regulate the integrated stress response” (eLife, 2021).

Target: T1, eIF2B decamer, eIF2B(αβδγε)2 (ISRIB pocket at the eIF2Bβ/eIF2Bδ interface) (Homo sapiens, UniProt P49770+Q9UI10)
T1 construct: gene EIF2B2; full eIF2B(αβδγε)2 decamer assembled from purified eIF2Bβγδε and eIF2Bα2; with eIF2Bβ (EIF2B2), with eIF2Bα, eIF2Bγ, eIF2Bε
Test: fluorescence polarization competition with FAM-ISRIB; also FRET assembly of tetramers (EC50 […]), re-refined cryo-EM model
Format: binding

- IC50: 37 nM
Structure (SMILES): O=C(COc1ccc(Cl)cc1)N[C@H]1CC[C@H](NC(=O)COc2ccc(Cl)cc2)CC1 [ISRIB]
